Reference: patent US11628174B1, “Pharmaceutical compositions and methods for treating insomnia” (priority 2022, dated 2023)

Key:
[1] = tested on: insomnia; assay: Clinical case reports: treatment of patients with insomnia; format: in vivo, human
[2] = tested on: REM sleep; settings: background statement; cited from earlier work
[3] = tested on: anti-IgE-induced release of prostaglandin D2 (PGD2) and leukotrienes C4/D4; release of cytokines; settings: background statement, cited from earlier work
[4] = tested on: allergic rhinitis; assay: Clinical case report: allergic rhinitis in a patient with insomnia; format: in vivo, human; settings: Example 1; ebastine 20 mg once a day, about 3 months
[5] = Clinical case reports: tolerability and side effects in patients with insomnia
Method: A patient had insomnia for more than 2 months before they were provided with medications.
A patient had insomnia for more than 3 months. […] After that, they were treated with the combination of ebastine (10 mg) and alprazolam (0.4 mg) daily.

In the case of `Cc1nnc2n1-c1ccc(Cl)cc1C(c1ccccc1)=NC2` [alprazolam, 8-chloro-1-methyl-6-phenyl-4H-s-triazolo[4,3-a] [1,4]benzodiazepine], the “chronic insomnia along with depression, improvement” value ([1]; Example 2, person, alprazolam 0.8 mg twice daily, 2 months) is given as “no improvement”, the REM latency [2] is given as “increases” and the “length of REM periods and frequency of REM burst activities” value [2] is given as “significantly decreases”.

In the case of `CC(C)(C(=O)O)c1ccc(C(=O)CCCN2CCC(OC(c3ccccc3)c3ccccc3)CC2)cc1` [carebastine], the “release of PGD2” value ([3]; metabolite of ebastine) is given as “inhibits”.

In the case of `CC(C)(C)c1ccc(C(=O)CCCN2CCC(OC(c3ccccc3)c3ccccc3)CC2)cc1` [ebastine, 4-diphenylmethoxy-1-[3-(4-tert-butylbenzoyl)-propyl] piperidine], the “insomnia (difficulty of falling to asleep) improvement” value ([1]; Example 1, person, ebastine 20 mg once a day, about 3 months) is given as “no improvement”, the “anti-IgE-induced release of prostaglandin D2 (PGD2) and leukotrienes C4/D4 (LTC4/D4)” value [3] is given as “significantly inhibits” and the “release of cytokines, including GM-CSF, tumour necrosis factor-a and interleukin-8” value [3] is given as “inhibited”. For the same compound, the allergic rhinitis improvement [4] was “only improved marginally”.

With `CN1CCN(C(=O)O[C@H]2c3nccnc3C(=O)N2c2ccc(Cl)cn2)CC1` [eszopiclone] the “tolerability (side effects of headache and dizziness)” value ([5]; Example 3, eszopiclone 1 mg daily for 2 weeks) was “could not tolerate the side effects of headache and dizziness” and the “tolerability (adverse reaction of headache)” value ([5]; Example 4, person, eszopiclone 1 mg daily for one week) was “could not tolerate its adverse reaction of headache”.

For `Cc1ccc(-c2nc3ccc(C)cn3c2CC(=O)N(C)C)cc1` [zolpidem], the “tolerability (side effects of headache and dizziness)” value ([5]; Example 3, person, zolpidem 10 mg daily for 1 month) was “could not tolerate the side effects of headache and dizziness”.
